Consider three molecules from US11149006B2, “Compounds as neurokinin-1 receptor antagonists and uses thereof” (XW LABORATORIES INC., priority 2018, dated 2021).

One series concerns the target human NK-1 receptor (Homo sapiens (Human), UniProt P25103). The series is described as follows: Tag-Lite Tachykinin NK-1 receptor competitive binding assay (TR-FRET). The conditions noted are these: Tag-Lite NK-1 labeled cells, read-out: IC50 on hNK-1 receptor. The procedure:
Human Tachykinin NK-1 receptor binding assay was performed using CisBio's Tag-Lite® Ligand binding assay. The homogeneous binding assay employees the time resolved fluorescence energy transfer (TR-FRET) technology. The potential inhibitory effect of Compound I and V on human NK-1 receptor was evaluated by TagLite® Tachykinin NK-1 receptor binding assay.
1. Tag-Lite® Tachykinin NK-1 receptor binding assay.
Materials: Tag-Lite® Tachykinin NK-1 labeled Cells, Tachykinin NK-1 Receptor red agonist Fluorescent Ligand (10 μMx50 μL), Tag-Lite Buffer (TLB) (5×concentration) (CisBio, Redford, Mass., U.S.A). [Sar9, Met(O2)11]-Substance P-Polypeptides (Tocris, Bristol, UK).
2. Competitive binding (Ki determination): Competitive binding assay measures the dissociation constant, To perform the assay, the compound is titrated into a solution containing a fixed concentration of fluorescent ligand and a fixed amount of cells.
Experimental procedure for competitive binding (Ki determination): Perform CisBio's Tag-Lite® Tachykinin NK-1 binding assay according to manufacturer's protocol. […] Incubate 2 h at room temperature, read the Signal665nm and Signal620nm using Evision. Data analysis was performed by calculating the Ratio following the formula below, the competitive binding data for each compound was analyzed with GraphPad Prism 5.0, and IC50 value was calculated for each compound.

Series [1] has as its target human NK-1 receptor (NK-1/HEK293) (Homo sapiens (Human), UniProt P25103). The series can be described thus: NK-1 calcium flux FLIPR antagonist assay. In kind it is cell-based. Conditions: for inhibition at 10 µM: HEK293, NK-1, max dose 10000 nM; for IC50: NK-1 FLIPR antagonist mode. The protocol: (§1) The potential antagonist activity of Compound I and IV on human NK-1/2/3 receptor was evaluated by calcium flux FLIPR assay. The results are shown in the following Table 2, while the NK-1 fitting dose-response curves for Compound I and IV are shown in FIGS. 2A and 2B, respectively.
(§2) 1. NK-1, NK-2 and NK-3 Calcium Flux FLIPR assays:
(§3) Materials: Cell Lines: NK-1/HEK293, NK-2/HEK293, NK-3/HEK293. Media: DMEM, Invitrogen (Cat #11960), FBS, Corning (Cat #35-076-CV), G418, Invitrogen (Cat #10131-027), and Blasticidin, Invitrogen (Cat #A11139). Reagent: Fluo-4 Direct, (Invitrogen, Cat #F10471).
(§4) Experimental procedure for NK-1, NK-2 and NK-3 calcium flux FLIPR assay: Perform the assay in the following steps: 1) Cell preparation: thaw each cell (NK-1, NK-2 and NK-3) in 37° C. water bath with gentle shaking, transfer cell suspensions to 50 mL conical tubes and add plating media to 45 mL mark. Count cells using a ViCell for concentration. Re-suspend the cells in the growth media to a concentration of 10×10^5 per mL. Add 20 μL per well of the cell suspension to the 384-well plates (20,000 cells/well). Place the cells at 37° C. 5% CO2 incubator overnight. 2) Calcium Flux FLIPR assay: a) Prepare Probenecid reagent by adding 1 mL FLIPR Assay Buffer to 77 mg probenecid to make 250 mM solution. b) Prepare assay reagent (2×8 μM Fluo-4 Direct™ Loading Buffer): Thaw one vial of Fluo-4 Direct™ crystals, add 10 mL of FLIPR Assay Buffer to the Vial; add 0.2 mL of Probenecid to each 10 mL vial of Fluo-Direct. c) Compounds preparation: The compounds are serially diluted in 100% DMSO 1:3 for 10 pts by Echo. Then dispense 900 nL of compounds to the 384-compound plate. Remove cell plate from incubator and gently dispense 20 μL of 2×Fluo-4 Direct™ to 384 well cell culture plate. Incubate for 50 min at 37° C. 5% CO2 and 10 min at room temperature. Remove cell plate from incubator and place it into FLIPR (Molecular Devices). Place compound plate and tip box into FLIPR. For the dose response curve (DRC) plate: a) Run the Protocol on FLIPRTETRA. b) Transfer 10 μL of assay buffer from 384-well plate to the cell plates. c) Read fluorescence signal. d) Transfer 10 μL of the compounds from the DRC plate to the cell plates. e) Read fluorescence signal. f) Calculate the “Max-Min” starting from Read 90 to Maximum allowed. […] For the compound plate in antagonist test: a) Run the Protocol on FLIPRTETRA. b) Transfer 10 μL of references and compounds from the compound plate to the cell plates. c) Read fluorescence signal. d) Transfer 10 μL of 6×EC80 concentrations of agonist reference compounds to the cell plates. e) Read fluorescence signal. f) For antagonist test, calculate the “Max-Min” starting from Read 90 to Maximum allowed. h) Analyze the data using GraphPad Prism 5.0.
In general terms: A change in cytosolic calcium serves as a functional read-out for many receptors and channels.

Series [2] concerns the target human NK-3 receptor (NK-3/HEK293) (Homo sapiens (Human), UniProt P29371). The series can be described thus: NK-3 calcium flux FLIPR antagonist assay. In kind it is cell-based. The conditions noted are these: for inhibition at 10 µM: HEK293, NK-3, max dose 10000 nM; for IC50: NK-3 FLIPR antagonist mode. The procedure: as §1, §2, §3, §4
Series [3] relates to cisplatin-induced emesis in ferrets. The series is described as follows: Cisplatin-induced acute and delayed emesis in the ferret. It counts as in vivo. Conditions: for reduction of retching+vomiting, entire delayed phase: delayed phase 24-72 h. The procedure: To investigate the anti-emetic potential of Compound I by preventing cisplatin-induced acute and delayed emesis in the ferret. Aprepitant was used as a positive control in this study.
40 castrated male ferrets weighing between 1.2 and 2.3 kg were used, which were obtained from Wuxi Sangosho Biotechnology Co. Ltd. (Wuxi, Jiangsu, China) and housed in groups of 2-3 at 24±1° C. with at 50±5% humidity. Artificial lighting was provided between 06:00 to 18:00 h. Water and dry pelleted cat chow were given ad libitum, unless otherwise stated. All experiments were conducted under license from the Government of the Hong Kong SAR and the Animal Experimentation Ethics Committee, The Chinese University of Hong Kong.
Compound I and aprepitant were supplied by XW Laboratories, Inc, China and were dissolved in distilled water. Cisplatin (Lot #MKBR1947V) was from Sigma-Aldrich, St. Louis, USA, and was dissolved in 0.9% w/v saline adjusted to pH 4 with 0.1N HCl. Doses were expressed as the free base, unless otherwise stated.
On the day of the experiment, groups of ferrets were administered Compound I (0.1, 0.3, 1 mg/kg, p.o.), aprepitant (1 mg/kg, p.o.), or distilled water (vehicle control, 1 mL/kg, p.o.) 2 h before cisplatin (5 mg/kg, i.p.) and then the treatments were continued at 24 h intervals (at 24 and 48 h post cisplatin). Emesis was characterized by rhythmic abdominal contractions that were either associated with the forceful oral expulsion of solid or liquid material from the gastrointestinal tract (i.e., vomiting), or not associated with the passage of material (i.e., retching movements). Consecutive episodes of retching and/or vomiting were considered separate when the animal changed its location in the observation cage, or when the interval between episodes exceeded 5 seconds.
GraphPad Prism 8 (GraphPad Software, La Jolla, Calif., United States) was used to perform statistical comparisons. Animal emesis behaviours like retching and vomiting were analyzed using a one-way analysis of variance followed by Tukey's multiple comparisons tests. The results are expressed as the mean±SEM. In all cases, differences between treatment groups were considered significant when the p value was less than 0.05.

Series [4] addresses human NK-2 receptor (NK-2/HEK293) (Homo sapiens (Human), UniProt P21452). The series is described as follows: NK-2 calcium flux FLIPR antagonist assay. It counts as cell-based. The conditions noted are these: for inhibition at 10 µM: HEK293, NK-2, max dose 10000 nM; for IC50: NK-2 FLIPR antagonist mode. The procedure: as §1, §2, §3, §4
Series [5] in a line: Rat pharmacokinetic study. It counts as in vivo, male Sprague-Dawley rats. The conditions noted are these: male, Sprague-Dawley, plasma. The protocol:
For rat pharmacokinetic studies, male Sprague-Dawley rats were housed individually and fasted overnight before use. For Compound I and reference compound CP-122721, a single dose was administered to each rat in two groups (n=5/group) via intravenous (i.v.) administration at 4 mg/kg and oral (p.o.) administration of 20 mg/kg, respectively.
The vehicle used for i.v. administration was 10% HP-β-CD. The vehicle used for p.o. administration was 0.5% CMC-Na/0.1% Tween 80 in saline. Blood samples were collected at specified time-points following administration to individual rats within i.v. (pre-dose, 10 min, 0.5 h, 1 h, 2 h, 4 h, 6 h, 8 h, 12 h) and p.o. (pre-dose, 15 min, 0.5 h, 1 h, 2 h, 4 h, 8 h, 12 h, 24 h) group. Blood samples were clotted on ice immediately, plasma samples were then isolated by centrifugation and stored frozen (−80° C.) until further analysis. The concentrations of Compound I and CP-122721 were individually determined by LC/MS/MS assay. Various pharmacokinetic parameters were calculated using Phoenix™ WinNonlin® software. To quantify the bioconversion efficiency of the Compound I and CP-122721 in the circulation system, the bioavailability of Compound I and CP-122721 after p.o. administration was calculated.

The mark [6] stands for this setting: 1 mg/kg p.o., day 2 (non-significant).
Where [7] appears, read: 1 mg/kg p.o., entire 72 h observation period.

human NK-3 receptor (NK-3/HEK293), sequence (P29371 whole entry): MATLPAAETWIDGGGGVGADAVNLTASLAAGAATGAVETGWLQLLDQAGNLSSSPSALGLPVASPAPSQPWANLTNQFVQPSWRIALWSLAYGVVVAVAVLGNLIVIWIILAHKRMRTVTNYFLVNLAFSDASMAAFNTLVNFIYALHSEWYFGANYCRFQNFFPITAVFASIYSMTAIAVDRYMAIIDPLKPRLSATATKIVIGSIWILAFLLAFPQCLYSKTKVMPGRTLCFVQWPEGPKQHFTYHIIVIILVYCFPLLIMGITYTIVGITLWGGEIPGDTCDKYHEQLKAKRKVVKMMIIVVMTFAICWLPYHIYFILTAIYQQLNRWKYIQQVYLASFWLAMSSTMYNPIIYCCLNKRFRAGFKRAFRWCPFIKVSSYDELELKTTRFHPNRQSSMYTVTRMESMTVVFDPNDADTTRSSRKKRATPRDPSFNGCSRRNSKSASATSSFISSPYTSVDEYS
human NK-1 receptor (NK-1/HEK293), sequence (P25103 whole entry): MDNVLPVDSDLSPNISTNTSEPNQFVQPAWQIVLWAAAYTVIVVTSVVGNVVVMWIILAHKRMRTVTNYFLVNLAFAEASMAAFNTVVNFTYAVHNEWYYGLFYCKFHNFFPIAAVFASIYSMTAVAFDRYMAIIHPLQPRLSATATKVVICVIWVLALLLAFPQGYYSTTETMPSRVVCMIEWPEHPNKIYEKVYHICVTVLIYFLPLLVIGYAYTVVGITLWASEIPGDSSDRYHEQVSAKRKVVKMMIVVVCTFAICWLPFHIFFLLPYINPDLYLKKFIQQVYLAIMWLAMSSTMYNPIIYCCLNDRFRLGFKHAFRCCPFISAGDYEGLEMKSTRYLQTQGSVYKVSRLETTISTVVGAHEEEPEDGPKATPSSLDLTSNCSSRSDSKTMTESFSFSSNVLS
human NK-2 receptor (NK-2/HEK293), sequence (P21452 whole entry): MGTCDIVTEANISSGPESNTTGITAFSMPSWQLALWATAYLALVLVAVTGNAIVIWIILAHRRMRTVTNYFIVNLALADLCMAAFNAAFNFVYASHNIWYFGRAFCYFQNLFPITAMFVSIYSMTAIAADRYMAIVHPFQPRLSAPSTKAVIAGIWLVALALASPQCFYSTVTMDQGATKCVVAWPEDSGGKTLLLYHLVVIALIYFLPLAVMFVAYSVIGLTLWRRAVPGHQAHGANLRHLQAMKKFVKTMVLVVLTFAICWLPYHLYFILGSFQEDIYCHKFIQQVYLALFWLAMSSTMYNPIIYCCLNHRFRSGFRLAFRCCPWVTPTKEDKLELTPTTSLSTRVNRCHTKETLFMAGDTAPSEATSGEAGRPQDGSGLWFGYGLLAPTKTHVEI
human NK-1 receptor, sequence (P25103 whole entry): as the sequence (P25103 whole entry) above

What is called IC50 is the midpoint of a concentration-inhibition curve. The inhibition is the relative decrease from the control value, in per cent. What is called AUC(0-t) is the area under the concentration-time curve up to a stated or last time point. The half-life is how long it takes for the measured level to halve. A lower half-life goes with fast loss. Broadly, the bioavailability is dose-corrected exposure relative to a reference, in per cent. A word on the Cmax: it is the highest concentration seen after dosing. By Tmax is commonly meant the time from dosing to the highest level. For `COc1ccc(S(F)(F)(F)(F)F)cc1CN[C@H]1CCCN[C@H]1c1ccccc1` [Compound I, (2S,3S)—N-(2-methoxy-5-(pentafluorosulfanyl)benzyl)-2-phenylpiperidin-3-amine], the IC50 on human NK-1 receptor is 0.64 nM; in series [1], 6.15 nM; in series [2], more than 10000 nM; in series [4] it was more than 10000 nM. Further, the inhibition at 10 µM worked out at 102% in series [1], 26% in series [2] and 15% in series [4]. For the same molecule, the “reduction of retches+vomits, overall combined acute and delayed response” value amounted to 23.9% in series [3] (0.1 mg/kg p.o., 0-72 h) and 52.2% in series [3] (1 mg/kg p.o., 0-72 h). The same molecule returned a reduction of retches in series [3] (0.1 mg/kg p.o., entire 72 h observation period) of 21.9%. Besides, the “reduction of retching+vomiting response” value in series [3] (1 mg/kg p.o., day 1 (acute)) is listed as 64.5%; in series [3] (setting [6]) it was 22.7%; in series [3] (1 mg/kg p.o., day 3), 67.5%. Further, in series [3] (1 mg/kg p.o.), the “reduction of retching+vomiting, entire delayed phase” value came out at 41.3%. In series [3] (setting [7]), the “reduction of total number of episodes” value stood at 59.0%. In addition, the “reduction of total number of retches” value in series [3] (setting [7]) was found to be 51.3%. The “reduction of total number of vomits” value in series [3] (setting [7]) amounted to 57.3%. Besides, the AUC(0-t) in series [5] (iv, 4 mg/kg) came to 663 ng·h/mL; in series [5] (po, 20 mg/kg), 740 ng·h/mL. In addition, the half-life in series [5] (iv, 4 mg/kg) is 1.84 h; in series [5] (po, 20 mg/kg), 1.9 h. The bioavailability in series [5] (oral, p.o. 20 mg/kg vs i.v. 4 mg/kg) is 22.4%. Moreover, the highest level in series [5] (po, 20 mg/kg) (Cmax) was 202 ng/mL. In series [5] (po, 20 mg/kg), the time of peak concentration (Tmax) is 1.4 h.

On to `[2H]C([2H])([2H])Oc1ccc(S(F)(F)(F)(F)F)cc1CN[C@H]1CCCN[C@H]1c1ccccc1` [Compound IV, (2S,3S)—N-(2-(methoxy-d3)-5-(pentafluorosulfanyl)benzyl)-2-phenylpiperidin-3-amine], for which the inhibition at 10 µM came to 101% in series [1], 29% in series [2] and 1% in series [4]. In addition, the IC50 was 22.2 nM in series [1], more than 10000 nM in series [2] and more than 10000 nM in series [4].

In the case of `C[C@@H](O[C@H]1OCCN(Cc2n[nH]c(=O)[nH]2)[C@H]1c1ccc(F)cc1)c1cc(C(F)(F)F)cc(C(F)(F)F)c1` [aprepitant, reference compound], in series [3] (1 mg/kg p.o., 0-72 h), the “reduction of retches+vomits, overall combined acute and delayed response” value is on record as 67.4%. Also, the “reduction of retching+vomiting response” value in series [3] (1 mg/kg p.o., day 1 (acute)) worked out at 76.5%. Also, in series [3] (setting [6]), the “reduction of retching+vomiting response” value worked out at 46.7%. For the same molecule, the “reduction of retching+vomiting response” value in series [3] (1 mg/kg p.o., day 3) was found to be 73.3%. Further, the “reduction of retching+vomiting, entire delayed phase” value in series [3] (1 mg/kg p.o.) is 59.4%. Besides, in series [3] (setting [7]), the “reduction of total number of episodes” value was 64.0%, the “reduction of total number of retches” value was determined as 67.9% and the “reduction of total number of vomits” value stood at 64.6%. Also, in series [3] (aprepitant 1 mg/kg p.o. vs Compound I 0.1 mg/kg, 0-72 h), the “superiority in reduction of retches+vomits over Compound I 0.1 mg/kg” value was 43.5%. Besides, the “superiority in reduction of retches over Compound I 0.1 mg/kg” value in series [3] (aprepitant 1 mg/kg p.o. vs Compound I 0.1 mg/kg, 72 h) amounted to 46%.
